Measured values as given in patent publication EP0084757A1, “Trisubstituted diaza derivatives” (CIBA-GEIGY AG, priority 1982, dated 1983).
≈ marks a conversion by molar mass, not a printed value.

System: mit Crotonöl induzierten Rattenohroedems
Assay: Inhibition of croton oil-induced rat ear oedema (method of Tonelli and Thibault)
Format: in vivo, Normalratte
Conditions: inhibition of croton oil-induced ear oedema in the normal rat; local application
Experimental: Diese Eigenschaft lässt sich beispielsweise nach der von G. Tonelli, L. Thibault, Endocrinology 77, 625 (1965) entwickelten Methode durch Hemmung des mit Crotonöl induzierten Rattenohroedems bei der Normalratte im Dosisbereich von etwa 1 bis etwa 100 mg/ml nachweisen.

## COC(Cc1nc(-c2ccccc2)c(-c2cccnc2)[nH]1)OC [2-[4(5)-Phenyl-5(4)-(3-pyridyl)-imidazol-2-yl]-acetaldehyd-dimethylacetal]
  ED50-Wert: 18 mg/mL (≈ 58.2 mM)
